From patent US20250263423A1, “INHIBITORS OF RAS ONCOPROTEINS” (BridGene Biosciences, Inc., priority 2021, published 2025) come the findings set out here.

Kras G12D, sequence (P01116-2 other isoform, or with tags, fused parts or gaps G12D): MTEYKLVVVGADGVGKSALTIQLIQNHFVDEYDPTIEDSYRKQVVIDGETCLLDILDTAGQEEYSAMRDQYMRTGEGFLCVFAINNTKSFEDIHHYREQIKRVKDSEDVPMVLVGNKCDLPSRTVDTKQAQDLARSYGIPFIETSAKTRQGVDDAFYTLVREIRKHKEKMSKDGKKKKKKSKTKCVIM

For this assay, the target named is Kras G12D (Homo sapiens (Human), UniProt P01116, G12D). The experiment in a line: HTRF-based nucleotide exchange assay detecting GTP binding to K-Ras. The class given is biochemical. The conditions noted are these: SOS1 (aa 564-1049), fluorescently labelled GTP, compound incubated 1 h at RT. On the procedure:
Kras G12D was mixed with a-GST Tb antibody (1.5× solution) and 10 uL was delivered to reaction wells. A mixture of Kras G12D/aGST-Tb Ab/compound mixture was incubated for 1 h at RT. A 3× solution of SOS1 (aa 564-1049) and fluorescently labelled GTP* was prepared in reaction buffer and 5 μL of SOS1/GTP* solution was added to reaction well to initiate the exchange reaction. An IC50 was determined using a sigmoidal dose response (variable slope) equation. Note: Assay IC50 data are designated within the following ranges: A: ≤10 nM, B: >10 nM to ≤1000 nM, C: >1000 nM
For orientation: IC50 means the concentration at which inhibition is half-maximal. A lower IC50 goes with higher potency. As to `C#Cc1cccc2cc(O)cc(-c3ncc4c(N5CC6CCCC(C5)N6)nc(OCC56CCCN5CCC6)nc4c3F)c12` [Example 7, 4-(4-(3,9-diazabicyclo[3.3.1]nonan-3-yl)-8-fluoro-2-((tetrahydro-1H-pyrrolizin-7a(5H)-yl)methoxy)pyrido[4,3-d]pyrimidin-7-yl)-5-ethynylnaphthalen-2-ol], the IC50 is no more than 10 nM.

In turn, `C#Cc1cccc2cc(O)cc(-c3ncc4c(N5CC6CC(C5)N6)nc(OCC56CCCN5CCC6)nc4c3F)c12` [Example 8, 4-[4-(3,6-diazabicyclo[3.1.1]heptan-3-yl)-8-fluoro-2-(1,2,3,5,6,7-hexahydropyrrolizin-8-ylmethoxy)pyrido[4,3-d]pyrimidin-7-yl]-5-ethynyl-naphthalen-2-ol] yielded an IC50 of no more than 10 nM.

For the molecule `C#Cc1cccc2cc(O)cc(-c3ncc4c(N5C[C@@H]6C[C@H]5CN6)nc(OCC56CCCN5CCC6)nc4c3F)c12` (stereo in doubt) [Example 6, 4-(4-((1S,4S)-2,5-diazabicyclo[2.2.1]heptan-2-yl)-8-fluoro-2-((tetrahydro-1H-pyrrolizin-7a(5H)-yl)methoxy)pyrido[4,3-d]pyrimidin-7-yl)-5-ethynylnaphthalen-2-ol], the IC50 was no more than 10 nM.

Consider `Fc1c(-c2cccc3cccc(Cl)c23)ncc2c(N3CC4CNCC4C3)nc(OCC34CCCN3CCC4)nc12` [Example 5, 4-[(3aR, 6aS)-2,3,3a,4,6,6a-hexahydro-1H-pyrrolo[3,4-c]pyrrol-5-yl]-7-(8-chloro-1-naphthyl)-8-fluoro-2-(1,2,3,5,6,7-hexahydropyrrolizin-8-ylmethoxy)pyrido[4,3-d]pyrimidine], for which the IC50 is greater than 1000 nM.

In the case of `C#Cc1cccc2cc(O)cc(-c3ncc4c(N5CC6COCC(C5)N6)nc(OCC56CCCN5CCC6)nc4c3F)c12` [Example 4, 4-(4-(3-oxa-7,9-diazabicyclo[3.3.1]nonan-7-yl)-8-fluoro-2-((tetrahydro-1H-pyrrolizin-7a(5H)-yl)methoxy)pyrido[4,3-d]pyrimidin-7-yl)-5-ethynylnaphthalen-2-ol], the IC50 was no more than 10 nM.

`C[C@@H]1CN(c2nc(OCC34CCCN3CCC4)nc3c(F)c(-c4cccc5cccc(Cl)c45)ncc23)C[C@H](C)N1` [Example 1, 7-(8-chloronaphthalen-1-yl)-4-((3R,5S)-3,5-dimethylpiperazin-1-yl)-8-fluoro-2-((tetrahydro-1H-pyrrolizin-7a(5H)-yl)methoxy)pyrido[4,3-d]pyrimidine] returned an IC50 greater than 1000 nM.

Turning to `C[C@H]1CN(c2nc(OCC34CCCN3CCC4)nc3c(F)c(-c4cccc5cccc(Cl)c45)ncc23)C[C@H](C)N1` [Example 2, 7-(8-chloronaphthalen-1-yl)-4-((3S,5S)-3,5-dimethylpiperazin-1-yl)-8-fluoro-2-((tetrahydro-1H-pyrrolizin-7a(5H)-yl)methoxy)pyrido[4,3-d]pyrimidine], the IC50 was 10 to 1000 nM.

Turning to `Fc1c(-c2cccc3cccc(Cl)c23)ncc2c(N3C[C@H]4CC[C@@H](C3)N4)nc(OCC34CCCN3CCC4)nc12` [Example 3, 4-((1R,5S)-3,8-diazabicyclo[3.2.1]octan-3-yl)-7-(8-chloronaphthalen-1-yl)-8-fluoro-2-((tetrahydro-1H-pyrrolizin-7a(5H)-yl)methoxy)pyrido[4,3-d]pyrimidine], the IC50 is no more than 10 nM.
